Counter-ions that a name gives are not always drawn.
System: guinea pig hearts
Assay: ECG measurement of QT interval prolongation in isolated guinea pig hearts (Langendorff perfusion)
Parameters: species or system guinea pig (male Duncin-Hartley)
Details: for EC20: Cavia porcellus, 0.25 h, isolated guinea pig heart, Langendorff perfusion, 37° C, cumulative administration at 15 min intervals into the perfusate, ED20% by linear regression of log dose, read-out: ED20% (dose at which there is a 20% increase in the QT interval from the initial figure); for Relative effect ED20% (D-sotalol)/ED20% (Ex.): ratio relative to D-sotalol, QT interval, guinea pig heart
From the text: In these the cardiac cycle is divided into systole (contraction of the heart), also called QT interval, and diastole (relaxation of the heart with filling of the ventricles). Repolarization inhibitors increase the QT interval with a negligible effect on the atrioventricular conduction time (PQ interval) and the period of isometric contraction (QRS time, from the start of systole until the semilunar valves open) (see Pschyrembel, 254th edition, 1982).
The activity of the compounds according to the invention as repolarization inhibitors can be investigated in animal experiments by ECG measurements on, for example, guinea pig hearts (see Basic Res. Cardiol. 82 (1987) 437; J. Pharmacol. Methods 21 (1989) 195). Used to compare the activities of a number of substances is, for example, the dose of an agent at which there is a 20% increase in the QT interval from the initial figure (ED20%).This is done by plotting the logarithm of the doses of the particular substances against the experimentally found relative changes in the QT interval, and using linear regression to determine the equation of a straight line from which the ED20% can be calculated.
This method was used to determine the ED20% values for the compounds of Examples 2 and 3 (see Table). D-sotalol was used as comparative substance.
The experimental animals were male Duncin-Hartley guinea pigs with a body weight of 300 to 350 g. 30 min after administration of 1250 I.U. of heparin/kg of body weight into the abdominal cavity, the animals were sacrificed by a blow to the back of the neck. After the common carotid arteries had been cut for exsanguination, the thoracic cavity was opened, and the heart was dissected out and attached to a perfusion apparatus. The Langendorff perfusion was carried out with Krebs-Henseleit solution (NaCl 6896 mg/l; KCl 350 mg/l; MgSO4 285 mg/l; CaCl2 370 mg/l; KH2 PO4 161 mg/l; NaHCO3 2090 mg/l; glucose 2000 mg/l) enriched with oxygen and heated to 37° C. The perfusion volume per unit time was adjusted to 4 to 6 ml/min for a total volume of 100 ml, and the perfusion pressure was adjusted to 60 to 70 mm Hg. Circulating perfusion was carried out after equilibration for 30 min.
The ECG measurements were made via two silver electrodes attached to the surface of the heart in the upper region of the left coronary artery and on the rear of the heart at the level of the valve plane. The PQ and QT intervals, the QRS time and the heart rate were measured.
The substance was administered cumulatively at intervals of 15 min into the perfusate.

Structure (SMILES)	EC20	Relative effect ED20% (D-sotalol)/ED20% (Ex.)
CC(C)NCC(O)c1ccc(NS(C)(=O)=O)cc1 [D-sotalol, 4'-[1-hydroxy-2-(isopropylamino)ethyl]methanesulfonanilide, reference compound]	16000 nM	
Cc1ccccc1C=CC(=O)Nc1cc(C)c(OCCN2CCCC2)c(C)c1 [Example 2, [3',5'-Dimethyl-4'-(2-(N-pyrrolidinyl)ethoxy)]-(2-methylphenyl)acrylanilidefumarate]	500 nM	32
Cc1ccccc1CCC(=O)Nc1cc(C)c(OCCN2CCCC2)c(C)c1 [Example 3, [3',5'-Dimethyl-4'-(2-(N-pyrrolidinyl)ethoxy)]-3-(2-methylphenyl)propionanilide fumarate]	310 nM	51
